In patent US4259329A, “17-Cyclobutylmethyl-3-hydroxy-β-methyl-6-methylene morphinane, and methods of treating pain with them” (priority 1980, dated 1981):
“Also recorded” adds a separate entry of the source. Where a name gives a salt, the structure may show the parent alone. Read-outs that look alike come from different tables or passages of the source.

Tests used:
[1] = tested on: mice (acetic acid writhing); experiment: Acetic Acid Mouse Writhing Test (analgesic effects); assay type: in vivo, male CD-1 mice; conditions: sc, 0.25 h, subcutaneous, acetic acid i.p. 15 min post drug, read-out: ED50 (dose required to reduce the number of writhes by 50%)
Procedure: Acetic Acid Mouse Writhing Test
The analgesic effects of the test compounds were determined in mice by use of the acetic acid writhing test described by B. A. Whittle, Brit. J. Pharmacol., 22: 246 (1964). In this test at least three groups of 5 male CD-1 mice each were given subcutaneous doses of the test drug dissolved in distilled water. In all cases 0.4 milliliters of a 0.5% V/V acetic acid in distilled water solution was administered intraperitoneally 15 minutes post drug. The number of writhes in a 20 minute interval beginning 5 minutes after the acetic acid injection were determined and compared with the number of writhes in a control group which had received only acetic acid.
Percent inhibition of writhing was calculated as: [formula]
The ED50 dose, i.e., the dose required to reduce the number of writhes by 50%, was determined graphically from a plot of % inhibition as a probit verus log dose. Confidence limits of 95% were calculated on the basis of those results falling in the range 16-84% inhibition. See Litchfield, J. T. and Wilcoxon, F., J. Pharmacol. Exp. Ther., 96, 99-113 (1949).

[2] = tested on: Physically Morphine Dependent Rats; experiment: Incidence of side effects during substitution in morphine dependent rats
Procedure: (§1) Substitution Studies in Physically Morphine Dependent Rats
(§2) Rats were made physically dependent by continuous infusion of morphine through an indwelling intraperitoneal cannula as has been described (D. G. Teiger, J. Pharmacol. Exp. Ther., 190 408, 1974). Then one day substitution of either TR-5257 or TR-5379 was studied. Both drugs were infused at the rate of 125 mg/kg/day.
*Post termination of morphine infusion and during test drug infusion.

[3] = tested on: drug dependent monkeys; experiment: Substitution for morphine in drug dependent monkeys; assay type: in vivo
[4] = tested on: rats (effect of morphine, tail flick); experiment: Evaluation of Narcotic Antagonist Activity (modified rat tail flick test, antagonism of morphine); assay type: in vivo, male albino Wistar rats
Procedure: Evaluation of Narcotic Antagonist Activity
The narcotic antagonist effect of the test compound was determined by a modification of the rat tail flick procedure of Harris and Pierson (J. Pharmacol. Exp. Ther., 143:141 [1964]).
Male albino Wistar rats (100-120 g) were used for this study. A rat's tail is so placed so as to cover a photocell. Heat is applied by a lamp in a reflector with a timer being connected to the lamp and photocell so that the timer goes on when the light is turned on and is turned off when the photocell is uncovered. A rheostat, incorporated into a heating lamp is used to adjust the intensity of the light falling on the tail of the rat such that the rat's control reaction time is from two to four seconds. Animals with a control reaction time outside this range are rejected. The rheostat adjustment is made only if a significant proportion (1 out of every 10 rats) of the reaction times are outside the range of two to four seconds. Groups of 5 rats were used, and two control times were determined at 60 and 30 minutes prior to subcutaneous injection of the drug.
At least thirty minutes after the last control run the test drug was given […]. This was followed ten minutes later by an ED80 dose of morphine subcutaneously. The animals were retested at 20 minutes after the morphine injection. Control animals were given vehicle and morphine only. The data were calculated as follows: [formula]
The data were plotted on log-probit paper and AD50 values, i.e., the dose required to inhibit the effect of morphine by 50% within 95% confidence limits, were determined by the method of Litchfield and Wilcoxon.

[5] = tested on: Physically Morphine Dependent Rats; assay type: in vivo
Procedure: as §1, §2

[6] = +6 hr post termination of morphine infusion, during test drug infusion

## C=C1C[C@H](C)[C@H]2[C@H]3Cc4ccc(O)cc4[C@@]2(CCN3CC2CC2)C1 [TR-5413, 17-Cyclopropylmethyl-3-hydroxy-8β-methyl-6-methylene-morphinane]
[1]
  ED50: 1.7 mg/kg

## C=C1CC[C@H]2[C@H]3Cc4ccc(O)cc4[C@@]2(CCN3CC2CC2)C1 [TR-5609, 17-Cyclopropylmethyl-3-hydroxy-6-methylene-morphinan]
[1]
  ED50: 0.38 mg/kg

## C=C1C[C@H](C)[C@H]2[C@H]3Cc4ccc(OC)cc4[C@@]2(CCN3CC2CC2)C1 [TR-5412, 17-cyclopropylmethyl-3-methoxy-8β-methyl-6-methylene-morphinane]
[1]
  ED50: 3.2 mg/kg

## C=C1C[C@H](C)[C@H]2[C@H]3Cc4ccc(O)cc4[C@@]2(CCN3CC2CCC2)C1 [TR-5379, 17-Cyclobutylmethyl-3-hydroxy-8β-methyl-6-methylene morphinane]
[2]; [6]
  Incidence of Aggressive: 1/6
  Incidence of Diarrhea: 4/6
  Incidence of Pilo erection: 6/6
[2]; +24 hr
  Incidence of Diarrhea: 2.6
  Incidence of Pilo erection: 6/6
[2]; +30 hr
  Incidence of Diarrhea: 2/6
  Incidence of Pilo erection: 4/6
[1]
  ED50: 0.18 mg/kg
[3]
  substitution for morphine: did not substitute for morphine
[4]; compared with corresponding 6-keto analog
  morphine antagonist action: more potent morphine antagonist action than its corresponding 6-keto analog
[4]; compared with corresponding 6-keto analog, test not named
  dose-response curve: steeper dose-response curve
[5]; rat, in vivo
  substitution for morphine: did not substitute for morphine; also recorded: does not substitute for morphine
[5]; rat, in vivo, 125 mg/kg/day
  Mean % Change in Weight From Termination of Morphine Infusion: -11.3%

## C=C1CC[C@H]2[C@H]3Cc4ccc(O)cc4[C@@]2(CCN3CC2CCC2)C1 [TR-5566, 17-Cyclobutylmethyl-3-hydroxy-6-methylene-morphinane Hydrochloride Acetone Solvate]
[1]
  ED50: 0.09 mg/kg

## CN1CC[C@]23c4c5ccc(O)c4O[C@H]2[C@@H](O)C=C[C@H]3[C@H]1C5 [Morphine]
[5]; +1 day (test drug infusion stopped here), 125 mg/kg/day for 1 day, morphine: infusion schedule 50-200 mg/kg/day
  Mean % Change in Weight From Termination of Morphine Infusion: -16.8%
[5]; +2 days, 125 mg/kg/day for 1 day, morphine: infusion schedule 50-200 mg/kg/day
  Mean % Change in Weight From Termination of Morphine Infusion: -12.7%
[5]; +3 days, 125 mg/kg/day for 1 day, morphine: infusion schedule 50-200 mg/kg/day
  Mean % Change in Weight From Termination of Morphine Infusion: -7.8%
[5]; +4 days, 125 mg/kg/day for 1 day, morphine: infusion schedule 50-200 mg/kg/day
  Mean % Change in Weight From Termination of Morphine Infusion: -1.6%

## C[C@H]1CC(=O)C[C@]23CCN(CC4CCC4)[C@H](Cc4ccc(O)cc42)[C@H]13.O=C(O)C(O)C(O)C(=O)O [TR-5257, 17-Cyclobutylmethyl-3-hydroxy-8β-methylmorphinan-6-one Tartrate]
[2]; [6]
  Incidence of Aggressive: 1/8
  Incidence of Diarrhea: 4/8
  Incidence of Pilo erection: 8/8
  Incidence of Wet dog shakes: 6/8
[2]; +24 hr
  Incidence of Pilo erection: 4/8
  Incidence of Tremors: 1/4
[2]; +30 hr
  Incidence of Pilo erection: 4/8
[2]; during period of drug substitution, 125 mg/kg/day
  withdrawal symptoms: marked withdrawal symptoms
[1]
  ED50: 0.14 mg/kg
[5]; rat, in vivo
  loss in weight during substitution (in words): appeared to prevent the marked loss in weight observed in the morphine controls
  substitution for morphine: ambiguous, with indication of partial substitution
[5]; rat, in vivo, 125 mg/kg/day
  Mean % Change in Weight From Termination of Morphine Infusion: -2.64%

## C=C1C[C@H](C)[C@H]2[C@H]3Cc4ccc(OC)cc4[C@@]2(CCN3CC2CCC2)C1.Cl [TR-5377, 17-cyclobutylmethyl-3-methoxy-8β-methyl-6-methylene-morphinane Hydrochloride]
[1]
  ED50: 6.42 mg/kg

## C=C1CC[C@H]2[C@H]3Cc4ccc(OC)cc4[C@@]2(CCN3CC2CCC2)C1 [TR-5610, 17-Cyclobutylmethyl-3-methoxy-6-methylene-morphinane Tartrate Ethanol Solvate]
[1]
  ED50: 1.6 mg/kg
[4]; rat, test drug intraperitoneal, ED80 dose of morphine s.c. 10 min later
  AD50 (dose required to inhibit the effect of morphine by 50%): IA @ 10
